Test [1] deals with T1, N-type Ca^2+ channel in IMR-32 cells (Homo sapiens, UniProt Q00975).
T1 construct: host or cells: IMR-32 (differentiated with dibutyryl cAMP and bromodeoxyuridine)
In words: N-type Ca2+ channel blockade in IMR-32 cells (fluorescent Ca2+ indicator Indo-1). It counts as cell-based. The following applies: 5 μM nitrendipine present.

A further test deals with DBA/2 mice. In words: Audiogenic seizure (anticonvulsant) test in DBA/2 mice. It counts as in vivo. The following applies: Mus musculus; 30 mg/kg, intravenous; read-out: DBA/2 mice % Protection. How it is done: A compound of the present invention was dissolved in water using 10% (weight/volume) Emulphor (GAF Corp., Wayne, N.J.) surfactant. Substances were administered by intravenous injection into the retro-orbital venous sinus. All testing was performed fifteen minutes or forty-five minutes after drug injection. All the male mice, 3-4 weeks old were obtained from Jackson Laboratories Bar Harbour, Me. Immediately before anticonvulsant testing, mice were placed upon a wire mesh, four inches square suspended from a steel rod. The square was slowly inserted through 180 degree and mice observed for thirty seconds. Any mouse falling from the wire mesh was scored as ataxia.
Mice were placed into an enclosed acrylic plastic chamber (21 cm height, approximately 30 cm diameter) with a high-frequency speaker (4 cm diameter) in the center of the top lid. An audio signal generator (Protek model B-810) was used to produe a continuous sinusoidal tone that was swept linearly in frequency between 8 kHz and 16 kHz once each 10 msec. The average sound pressure level (SPL) during stimulation was approximately 100 dB at the floor of the chamber. Mice were placed within the chamber and allowed to acclimatize for one minute. DBA/2 mice in the vehicle-treated group responded to the sound stimulus (applied until tonic extension occurred, or for a maximum of sixty seconds) with a characteristic seizure sequence consisting of wild running followed by clonic seizures and later by tonic extension, and finally by respiratory arrest and death in 80% or more of the mice. In vehicle-treated mice, the entire sequence of seizures to respiratory arrest lasts approximately 15-20 seconds.
The incidence of all the seizure phases in the drug-treated and vehicle-treated mice was recorded, and the occurrence of tonic seizures were used for calculating anticonvulsant ED50 values by probit analysis. Mice were used only once for testing at each time and dose point.

A further test has as its system male Swiss-Webster mice. Put plainly: Anti-Writhing Test in Mice (AW), acetic acid. It counts as in vivo. The source says: Anti-Writhing Test in Mice (AW) Test Protocol
The purpose of this test is to evaluate drugs for analgesic-like activity. The AW test determines the effect of drugs on the response to a presumed painful stimulus in mice and is used as a preliminary in vivo procedure for the identification of potential analgesic agents.
Known analgesics with low, moderate, or high efficacy in man allow mice to tolerate intra-peritoneal administration of dilute acetic acid as evidenced by lesser incidence of writhing movements. The AW test measures the nociceptive response to acetic acid in mice and provides an objective, reliable, and quantitative estimate of efficacy and potency of potential analgesic compounds. […]
Compounds are dissolved or suspended in physiological saline containing 2% Emulphor. […] Drug doses are expressed as the active moiety and are normally administered to mice (10, 30, and 100 mg/kg IP, SC, PO, or IM) in a volume of 10 mL/kg, 1 hour prior to testing; ICV doses (in μg/kg) are administered in a volume of 0.5 mL/kg, 5 minutes prior to testing. […]
Mice are treated with a dilute solution of acetic acid (0.6%, 10 mL/kg IP) which elicits writhing. […] Writhing movements (abdominal contractions, stretching of the torso and hind legs, and concave arching of the back) are counted for 5 minutes commencing 7 minutes after acetic acid administration. […]
(An intraperitoneal irritant provokes the stretching counted in writhing tests.)

The test system of the next test is N-type calcium channel. To be noted: Bowersox et al. 1994; cited from earlier work.
For test [2], the system named is models of ischemia and pain. To be noted: Bowersox et al. 1994; cited from earlier work.

Bridges are numbered along the chain shown (N, C = ends). Where no end group is shown, it is not given here.

T1 sequence (Q00975 whole entry): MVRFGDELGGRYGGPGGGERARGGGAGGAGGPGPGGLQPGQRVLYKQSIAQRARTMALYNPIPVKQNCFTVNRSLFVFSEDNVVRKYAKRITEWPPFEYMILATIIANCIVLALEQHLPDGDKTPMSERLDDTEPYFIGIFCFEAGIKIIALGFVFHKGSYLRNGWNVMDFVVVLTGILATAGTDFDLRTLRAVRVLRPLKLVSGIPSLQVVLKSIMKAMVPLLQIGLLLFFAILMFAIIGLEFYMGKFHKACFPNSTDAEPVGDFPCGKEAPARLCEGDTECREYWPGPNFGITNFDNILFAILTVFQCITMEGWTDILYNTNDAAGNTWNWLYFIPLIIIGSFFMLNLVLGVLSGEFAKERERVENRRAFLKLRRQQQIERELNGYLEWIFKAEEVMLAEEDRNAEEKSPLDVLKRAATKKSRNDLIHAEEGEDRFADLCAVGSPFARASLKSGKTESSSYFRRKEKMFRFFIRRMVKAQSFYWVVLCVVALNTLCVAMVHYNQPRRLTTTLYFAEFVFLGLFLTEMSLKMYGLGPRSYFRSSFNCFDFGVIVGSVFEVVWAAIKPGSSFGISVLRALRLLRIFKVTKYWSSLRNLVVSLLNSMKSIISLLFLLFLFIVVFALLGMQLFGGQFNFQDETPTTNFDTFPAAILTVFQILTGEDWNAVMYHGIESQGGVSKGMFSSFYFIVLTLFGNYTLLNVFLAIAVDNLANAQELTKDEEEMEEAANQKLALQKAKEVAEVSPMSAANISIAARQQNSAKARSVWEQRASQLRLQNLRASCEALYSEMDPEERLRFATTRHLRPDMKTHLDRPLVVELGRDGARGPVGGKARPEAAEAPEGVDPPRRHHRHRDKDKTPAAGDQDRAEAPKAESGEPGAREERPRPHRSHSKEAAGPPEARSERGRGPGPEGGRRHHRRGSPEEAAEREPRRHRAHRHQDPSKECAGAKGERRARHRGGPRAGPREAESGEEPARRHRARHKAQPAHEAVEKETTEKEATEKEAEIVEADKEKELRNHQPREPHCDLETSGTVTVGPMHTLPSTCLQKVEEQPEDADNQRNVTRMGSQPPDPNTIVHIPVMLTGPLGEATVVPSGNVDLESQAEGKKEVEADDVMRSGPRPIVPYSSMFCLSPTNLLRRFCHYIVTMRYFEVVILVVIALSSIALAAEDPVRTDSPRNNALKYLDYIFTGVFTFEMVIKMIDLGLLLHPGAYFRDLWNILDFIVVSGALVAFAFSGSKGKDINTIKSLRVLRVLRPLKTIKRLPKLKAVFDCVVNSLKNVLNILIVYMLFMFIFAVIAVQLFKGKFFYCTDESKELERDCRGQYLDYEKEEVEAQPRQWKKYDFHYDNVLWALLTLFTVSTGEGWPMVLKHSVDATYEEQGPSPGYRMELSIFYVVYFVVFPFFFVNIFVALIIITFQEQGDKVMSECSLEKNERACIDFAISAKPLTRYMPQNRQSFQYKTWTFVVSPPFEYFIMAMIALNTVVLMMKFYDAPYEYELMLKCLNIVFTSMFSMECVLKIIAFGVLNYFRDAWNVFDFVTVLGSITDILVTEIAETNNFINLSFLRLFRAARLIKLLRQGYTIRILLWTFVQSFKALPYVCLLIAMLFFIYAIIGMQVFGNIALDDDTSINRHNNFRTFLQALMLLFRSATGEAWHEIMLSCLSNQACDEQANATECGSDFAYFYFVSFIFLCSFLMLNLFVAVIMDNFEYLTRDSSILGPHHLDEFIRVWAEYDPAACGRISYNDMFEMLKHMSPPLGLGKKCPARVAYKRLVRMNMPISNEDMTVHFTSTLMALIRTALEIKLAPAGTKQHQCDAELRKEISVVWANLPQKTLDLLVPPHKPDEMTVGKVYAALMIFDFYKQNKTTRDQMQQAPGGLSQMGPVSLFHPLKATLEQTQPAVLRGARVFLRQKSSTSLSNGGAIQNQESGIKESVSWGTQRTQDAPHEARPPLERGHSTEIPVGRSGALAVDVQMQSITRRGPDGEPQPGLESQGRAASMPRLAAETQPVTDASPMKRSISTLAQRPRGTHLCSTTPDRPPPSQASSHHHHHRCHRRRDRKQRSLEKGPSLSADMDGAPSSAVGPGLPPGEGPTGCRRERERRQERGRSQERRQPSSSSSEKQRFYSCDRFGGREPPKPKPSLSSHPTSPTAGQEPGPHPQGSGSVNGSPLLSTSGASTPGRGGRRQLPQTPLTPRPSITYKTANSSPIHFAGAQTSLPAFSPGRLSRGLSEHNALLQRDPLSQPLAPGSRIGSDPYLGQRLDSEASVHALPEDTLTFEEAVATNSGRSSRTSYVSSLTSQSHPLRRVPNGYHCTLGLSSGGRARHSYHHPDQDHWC

For `CC(C)=CCN(c1ccc(OCc2ccccc2)cc1)C1CCN(C(=O)[C@@H](O)CC(C)C)CC1` [Example 44, (S)-1-{4-[(4-Benzyloxy-phenyl)-(3-methyl-but-2-enyl)-amino]-piperidin-1-yl}-2-hydroxy-4-methyl-pentan-1-one], the inhibition (as a rule, the relative decrease from the control value, in per cent) at 1 µM in test [1] (IMR-32, 1 μM) is 64%. Moreover, in test [1] (IMR-32, 10 μM), the inhibition at 10 µM amounted to 107%. Moreover, the responders at 30 mg/kg with DBA/2 mice was found to be 100%. Besides, the “Anti-Writhing % Protection” value in the test on male Swiss-Webster mice (10 mg/kg) was 30%; in the test on male Swiss-Webster mice (30 mg/kg), 100%.
Consider “SNX-111: selective N-type calcium channel blocker (CKGKGAKCSRLMYDCCTGSCRSGKC-NH2; disulfide 1-16, 15-25, 8-20; UniProt P05484 46-70, looked up)”, for which the “N-type calcium channel blockade selectivity” value with N-type calcium channel is recorded as “selective N-type calcium channel blocker”. In test [2], the “activity in models of ischemia and pain” value is “demonstrated activity in a number of models of ischemia and pain”.

Values taken from patent publication US6251919A, “Heterocyclic substituted aniline calcium channel blockers” (Warner-Lambert, priority 1999, dated 2001).
